Source: patent publication US20250195521A1 (Revolution Medicines, Inc., priority 2020, published 2025)
Read-outs that look alike come from different tables or passages of the source.

Legend:
Assay type in all cases: biochemical
NRAS WT = NRAS WT (Homo sapiens (Human), UniProt P01111+P62937); test: Ras-Raf disruption/FRET/MOA assay (BRAF RBD, Cyclophilin A)
Outline: (§1)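 Ras-GMPPNP (12.5 nM), BRAF RBD (50 nM) and 25 μM Cyclophilin A were incubated with compound for 3 h at 25° C, then detected 1.5 h with anti-His Eu and anti-GST APC; IC50 values follow from the reduced TR-FRET ratio.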

NRAS Q61K = NRAS Q61K (Homo sapiens (Human), UniProt P01111+P62937, Q61K); test: as above
Outline: as §1

KRAS Q61H = KRAS Q61H (Homo sapiens (Human), UniProt P01116+P62937, Q61H); test: as above
Outline: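 Measured: compound-facilitated Cyclophilin A:Ras complex blocking RAF RBD binding. Conditions: 12.5 nM Ras-GMPPNP, 50 nM BRAF RBD, 25 μM CypA, 3 h plus 1.5 h detection. Output: IC50 from TR-FRET ratio.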

[1] = target: KRAS G12S binding to BRAF RBD (Homo sapiens (Human), UniProt P01116+P62937, G12S); test: Ras-Raf disruption/FRET/MOA assay, KRAS G12S
Outline: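 TR-FRET ratio drop relative to DMSO wells marks disruption of the Ras–RAF complex, reported as IC50. Compounds promote a Ras(nucleotide)–cyclophilin A ternary complex that blocks BRAF RBD binding; dosing was 10 points, 3-fold, top 30 μM final, 3 h at 25° C before detection.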

[2] = target: KRAS G12V binding to BRAF RBD (Homo sapiens (Human), UniProt P01116+P62937, G12V); test: Ras-Raf disruption/FRET/MOA assay, KRAS G12V
Text: Note—The following protocol describes a procedure for monitoring disruption of K-Ras G12C(GMP-PNP) binding to BRAF^RBD by a compound of the invention. This protocol may also be executed substituting other Ras proteins or nucleotides.
The purpose of this biochemical assay was to measure the ability of test compounds to facilitate ternary complex formation between a nucleotide-loaded K-Ras isoform and Cyclophilin A; the resulting ternary complex disrupts binding to a BRAF^RBD construct, inhibiting K-Ras signaling through a RAF effector. Data is reported as IC50 values.
Compound was present in plate wells as a 10-point 3-fold dilution series starting at a final concentration of 30 μM. After incubation at 25° C. for 3 hours, a mixture of Anti-His Eu—W1024 and anti-GST allophycocyanin was then added to assay sample wells at final concentrations of 10 nM and 50 nM, respectively, and the reaction incubated for an additional 1.5 hours. […] Compounds that facilitate disruption of a K-Ras: RAF complex were identified as those eliciting a decrease in the TR-FRET ratio relative to DMSO control wells.

[3] = target: KRAS WT binding to BRAF RBD (Homo sapiens (Human), UniProt P01116+P62937); test: Ras-Raf disruption/FRET/MOA assay, KRAS WT
Outline: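 Compounds (top 30 μM, 3-fold, 10 points) promote Cyclophilin A (25 μM) ternary complex with His6-Ras-GMPPNP (12.5 nM), disrupting GST-BRAF RBD (50 nM) binding; 3 h, 25°C, 25 mM HEPES pH 7.3, 100 mM NaCl, 5 mM MgCl2. Detection reagents (Eu anti-His 10 nM, APC anti-GST 50 nM) added for 1.5 h; IC50 reported.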

NRAS Q61R = NRAS Q61R (Homo sapiens (Human), UniProt P01111+P62937, Q61R); test: Ras-Raf disruption/FRET/MOA assay (BRAF RBD, Cyclophilin A)
Outline: as §1

Chain of NRAS Q61R (P01111 whole entry Q61R): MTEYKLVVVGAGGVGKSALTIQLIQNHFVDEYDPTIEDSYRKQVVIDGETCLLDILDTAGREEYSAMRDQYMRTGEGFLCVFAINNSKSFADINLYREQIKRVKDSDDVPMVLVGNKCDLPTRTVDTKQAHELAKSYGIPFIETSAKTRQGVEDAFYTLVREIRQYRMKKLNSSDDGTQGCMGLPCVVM
Chain of NRAS Q61R (P62937 whole entry): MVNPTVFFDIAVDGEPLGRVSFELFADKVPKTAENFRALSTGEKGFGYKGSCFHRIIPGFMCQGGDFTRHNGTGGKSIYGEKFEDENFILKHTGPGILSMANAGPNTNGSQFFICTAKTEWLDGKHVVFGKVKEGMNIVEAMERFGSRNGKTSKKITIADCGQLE
Chain of KRAS Q61H (P01116 other isoform, or with tags, fused parts or gaps Q61H): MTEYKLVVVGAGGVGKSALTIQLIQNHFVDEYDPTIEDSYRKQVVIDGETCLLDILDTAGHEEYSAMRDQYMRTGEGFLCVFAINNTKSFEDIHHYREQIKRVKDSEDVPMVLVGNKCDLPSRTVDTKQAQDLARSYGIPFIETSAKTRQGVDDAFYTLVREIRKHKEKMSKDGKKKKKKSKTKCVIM
Chain of KRAS Q61H (P62937 whole entry): as the sequence (P62937 whole entry) above
Chain of KRAS G12V binding to BRAF RBD (P01116 other isoform, or with tags, fused parts or gaps G12V): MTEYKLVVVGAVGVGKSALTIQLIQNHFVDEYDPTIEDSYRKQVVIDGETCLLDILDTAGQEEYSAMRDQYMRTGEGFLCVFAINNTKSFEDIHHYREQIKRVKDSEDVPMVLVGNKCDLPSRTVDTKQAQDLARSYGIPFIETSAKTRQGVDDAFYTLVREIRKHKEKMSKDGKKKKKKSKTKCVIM
Chain of KRAS G12V binding to BRAF RBD (P62937 whole entry): as the sequence (P62937 whole entry) above
Chain of NRAS Q61K (P01111 whole entry Q61K): as the sequence (P01111 whole entry Q61R) above, with R61K counted along it
Chain of NRAS Q61K (P62937 whole entry): as the sequence (P62937 whole entry) above
Chain of KRAS G12S binding to BRAF RBD (P01116 other isoform, or with tags, fused parts or gaps G12S): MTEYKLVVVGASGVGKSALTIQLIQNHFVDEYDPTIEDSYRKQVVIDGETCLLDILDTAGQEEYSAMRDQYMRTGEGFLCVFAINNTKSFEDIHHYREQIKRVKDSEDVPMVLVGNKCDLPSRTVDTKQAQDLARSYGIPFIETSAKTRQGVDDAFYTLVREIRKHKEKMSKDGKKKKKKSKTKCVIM
Chain of KRAS G12S binding to BRAF RBD (P62937 whole entry): as the sequence (P62937 whole entry) above
Chain of NRAS WT (P01111 whole entry): as the sequence (P01111 whole entry Q61R) above, with R61Q counted along it
Chain of NRAS WT (P62937 whole entry): as the sequence (P62937 whole entry) above
Chain of KRAS WT binding to BRAF RBD (P01116 other isoform, or with tags, fused parts or gaps): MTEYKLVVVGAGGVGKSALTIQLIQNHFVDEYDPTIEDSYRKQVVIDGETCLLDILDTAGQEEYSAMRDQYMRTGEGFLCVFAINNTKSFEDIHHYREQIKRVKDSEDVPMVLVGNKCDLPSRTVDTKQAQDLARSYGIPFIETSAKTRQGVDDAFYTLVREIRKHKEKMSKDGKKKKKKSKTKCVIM
Chain of KRAS WT binding to BRAF RBD (P62937 whole entry): as the sequence (P62937 whole entry) above

SMILES	IC50 (NRAS WT)	IC50 (NRAS Q61K)	IC50 (KRAS Q61H)	IC50 [1]	IC50 [2]	IC50 [3]	IC50 ([2]; read-out: KRAS G12V FRET IC50)	IC50 (NRAS Q61R)
CCn1c(-c2cccnc2[C@H](C)OC)c2c3cc(ccc31)-c1cc(O)cc(c1)C[C@H](NC(=O)C1CCC3C1C3(F)F)C(=O)N1CCC[C@H](N1)C(=O)OCC(C)(C)C2 (some centres unmarked) [Compound A181]	1000 to 10000 nM	1000 to 10000 nM	100 to 1000 nM	10 to 100 nM				
CCn1c(-c2cccnc2[C@H](C)OC)c2c3cc(ccc31)-c1csc(n1)C[C@H](NC(=O)[C@H](C(C)C)N(C)C(=O)C1COC1)C(=O)N1CCC[C@H](N1)C(=O)OCC(C)(C)C2 [Compound A245]					10 to 100 nM			
CCn1c(-c2cccnc2[C@H](C)OC)c2c3cc(ccc31)-c1cc(O)cc(c1)C[C@H](NC(=O)[C@@H](C(C)C)N(C)C(C)=O)C(=O)N1CCC[C@H](N1)C(=O)OCC(C)(C)C2 [Compound A256]				10 to 100 nM		10 to 100 nM		
CCn1c(-c2cccnc2[C@H](C)OC)c2c3cc(ccc31)-c1csc(n1)C[C@H](NC(=O)[C@H](C(C)C)N(C)C(=O)N1CC(N3CCC3)C1)C(=O)N1CCC[C@H](N1)C(=O)OCC(C)(C)C2 [Compound A295]				10 to 100 nM		10 to 100 nM	10 to 100 nM	
CCn1c(-c2cccnc2[C@H](C)OC)c2c3cc(ccc31)-c1csc(n1)C[C@H](NC(=O)[C@H](C(C)C)N(C)C(=O)N1C[C@H](C)N(C)C[C@H]1C)C(=O)N1CCC[C@H](N1)C(=O)OCC(C)(C)C2 [Compound A300]				10 to 100 nM		10 to 100 nM	10 to 100 nM	
CCn1c(-c2cccnc2[C@H](C)OC)c2c3cc(ccc31)-c1csc(n1)C[C@H](NC(=O)C1CC1)C(=O)N1CCC[C@H](N1)C(=O)OCC(C)(C)C2 [Compound A367]	100 to 1000 nM	100 to 1000 nM	100 to 1000 nM	10 to 100 nM		10 to 100 nM		1000 to 10000 nM
CCn1c(-c2cccnc2[C@H](C)OC)c2c3cc(ccc31)-c1cc(O)cc(c1)C[C@H](NC(=O)[C@H](C(C)C)N(C)C(=O)[C@H]1CCN(C(=O)[C@@H](C)N(C)C)C1)C(=O)N1CCC[C@H](N1)C(=O)OCC(C)(C)C2 [Compound A386]						10 to 100 nM		
CCn1c(-c2cccnc2[C@H](C)OC)c2c3cc(ccc31)-c1cc(O)cc(c1)C[C@H](NC(=O)[C@H](C(C)C)N(C)C(=O)C1CNCCNC1)C(=O)N1CCC[C@H](N1)C(=O)OCC(C)(C)C2 [Compound A432]						10 to 100 nM		
CCn1c(-c2cccnc2[C@H](C)OC)c2c3cc(ccc31)-c1csc(n1)C[C@H](NC(=O)[C@H](C(C)C)N(C)C(=O)N1CCO[C@@]3(CCN(C)C3)C1)C(=O)N1CCC[C@H](N1)C(=O)OCC(C)(C)C2 [Compound A436]	100 to 1000 nM	100 to 1000 nM	100 to 1000 nM			10 to 100 nM		100 to 1000 nM
CCn1c(-c2cccnc2[C@H](C)OC)c2c3cc(ccc31)-c1csc(n1)C[C@H](NC(=O)[C@H](C(C)C)N(C)C(=O)N1CC[C@]3(CCNC3=O)C1)C(=O)N1CCC[C@H](N1)C(=O)OCC(C)(C)C2 [Compound A479]	100 to 1000 nM	100 to 1000 nM	100 to 1000 nM	10 to 100 nM		10 to 100 nM	10 to 100 nM	1000 to 10000 nM
CCn1c(-c2cccnc2[C@H](C)OC)c2c3cc(ccc31)-c1csc(n1)C[C@H](NC(=O)[C@H](C(C)C)N(C)C(=O)N1CCC[C@H](N(C)C)CC1)C(=O)N1CCC[C@H](N1)C(=O)OCC(C)(C)C2 [Compound A493]	10 to 100 nM		10 to 100 nM	10 to 100 nM		10 to 100 nM	10 to 100 nM	100 to 1000 nM
CCn1c(-c2cccnc2[C@H](C)OC)c2c3cc(ccc31)-c1csc(n1)C[C@H](NC(=O)[C@H](C(C)C)N(C)C(=O)N(C)C1(C)COC1)C(=O)N1CCC[C@H](N1)C(=O)OCC(C)(C)C2 [Compound A527]	100 to 1000 nM	100 to 1000 nM	100 to 1000 nM	10 to 100 nM		10 to 100 nM	10 to 100 nM	100 to 1000 nM
CCn1c(-c2cccnc2[C@H](C)OC)c2c3cc(ccc31)-c1csc(n1)C[C@H](NC(=O)[C@H](C(C)C)N(C)C(=O)N1CCN3C(=O)CN(C)C[C@H]3C1)C(=O)N1CCC[C@H](N1)C(=O)OCC(C)(C)C2 [Compound A537]	10 to 100 nM		10 to 100 nM	10 to 100 nM		10 to 100 nM	10 to 100 nM	100 to 1000 nM
CCn1c(-c2cccnc2[C@H](C)OC)c2c3cc(ccc31)-c1csc(n1)C[C@H](NC(=O)[C@H](C(C)C)N(C)C(=O)N1CC[C@@H]1CN)C(=O)N1CCC[C@H](N1)C(=O)OCC(C)(C)C2 [Compound A558]	10 to 100 nM	100 to 1000 nM	10 to 100 nM					100 to 1000 nM
CCn1c(-c2cccnc2[C@H](C)OC)c2c3cc(ccc31)-c1csc(n1)C[C@H](NC(=O)[C@H](C(C)C)N(C)C(=O)N1CC[C@@H](F)[C@H](N)C1)C(=O)N1CCC[C@H](N1)C(=O)OCC(C)(C)C2 [Compound A559]	100 to 1000 nM	100 to 1000 nM	10 to 100 nM					100 to 1000 nM
CCn1c(-c2cccnc2[C@H](C)OC)c2c3cc(ccc31)-c1csc(n1)C[C@H](NC(=O)[C@H](C(C)C)N(C)C(=O)[C@@H]1OCC[C@@H]1c1ccccc1)C(=O)N1CCC[C@H](N1)C(=O)OCC(C)(C)C2 [Compound A585]	100 to 1000 nM	100 to 1000 nM	100 to 1000 nM					100 to 1000 nM
CCn1c(-c2cccnc2[C@H](C)OC)c2c3cc(ccc31)-c1cccc(c1)C[C@H](NC(=O)[C@H](C(C)C)N(C)C(=O)[C@@H]1OCC[C@@H]1c1ccccc1)C(=O)N1CCC[C@H](N1)C(=O)OCC(C)(C)C2 [Compound A586]	100 to 1000 nM	100 to 1000 nM	100 to 1000 nM					100 to 1000 nM
CCn1c(-c2cccnc2[C@H](C)OC)c2c3cc(ccc31)-c1csc(n1)C[C@H](NC(=O)[C@H](C(C)C)N(C)C(=O)N1CCN(C(=O)[C@@H]3CCCN3C)CC1)C(=O)N1CCC[C@H](N1)C(=O)OCC(C)(C)C2 [Compound A596]	10 to 100 nM		10 to 100 nM	10 to 100 nM				100 to 1000 nM
CCn1c(-c2cccnc2[C@H](C)OC)c2c3cc(ccc31)-c1csc(n1)C[C@H](NC(=O)[C@H](C(C)C)N(C)C(=O)N1CC(O)(CN(C)C)C1)C(=O)N1CCC[C@H](N1)C(=O)OCC(C)(C)C2 [Compound A597]	100 to 1000 nM	100 to 1000 nM	100 to 1000 nM					100 to 1000 nM
CCn1c(-c2cccnc2[C@H](C)OC)c2c3cc(ccc31)-c1csc(n1)[C@@H](OC)[C@H](NC(=O)[C@H](C(C)C)N(C)C(=O)N(C)C)C(=O)N1CCC[C@H](N1)C(=O)OCC(C)(C)C2 [Compound A598, (2S)—N-((6^3S,3S,4S,Z)-1^1-ethyl-3-methoxy-1^2-(2-((S)-1-methoxyethyl)pyridin-3-yl)-10,10-dimethyl-5,7-dioxo-6^1,6^2,6^3,6^4,6^5,6^6-hexahydro-1^1H-8-oxa-2 (4,2)-thiazola-1 (5,3)-indola-6 (1,3)-pyridazinacycloundecaphane-4-yl)-3-methyl-2-(1,3,3-trimethylureido) butanamide]	100 to 1000 nM		100 to 1000 nM	10 to 100 nM		10 to 100 nM		100 to 1000 nM
CCn1c(-c2cccnc2[C@H](C)OC)c2c3cc(ccc31)-c1csc(n1)C[C@H](NC(=O)[C@H](C(C)C)N(C)C(=O)N1CCC[C@H]1c1ccccc1)C(=O)N1CCC[C@H](N1)C(=O)OCC(C)(C)C2 [Compound A599]	1000 to 10000 nM	1000 to 10000 nM	100 to 1000 nM					1000 to 10000 nM
CCn1c(-c2cccnc2[C@H](C)OC)c2c3cc(ccc31)-c1cc(O)cc(c1)C[C@H](NC(=O)[C@H](C(C)C)N(C)C(=O)[C@]1(F)CCN(C(=O)OC)C1)C(=O)N1CCC[C@H](N1)C(=O)OCC(C)(C)C2 [Compound A616]	100 to 1000 nM	100 to 1000 nM	10 to 100 nM					100 to 1000 nM
